This is an account of results in PubChem BioAssay (NCI).

Some test systems named below: HCT-116 colon; SK-MEL-2 melanoma; UACC-257 melanoma; NCI-H522 lung; RXF 393 renal; MALME-3M melanoma; LOX IMVI melanoma; HCC-2998 colon; HOP-92 NSCLC; SN12C renal.
Common to all, as to assay: growth of human tumour cells (NCI), 48 h

SMILES strings stand for the structures.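 Briefly, cells in 96-well plates were exposed to five compound concentrations for 48 h, and endpoints were estimated by linear interpolation. Abbreviation: GI50, concentration required for 50% inhibition of growth. The concentration for full growth arrest is given as TGI.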

For the molecule `O=C(Nc1ccncc1)C(=O)c1cn(S(=O)(=O)c2ccc(Br)cc2)c2ccccc12`, the GI50 in the assay on HCT-116 colon is 3.71 µM; with SK-MEL-2 melanoma, 32 µM; in the assay with UACC-257 melanoma it was 7.62 µM; in the assay with NCI-H522 lung, 1.94 µM; in the assay on RXF 393 renal, 7.28 µM; in the assay on MALME-3M melanoma, 24.2 µM. For the same molecule, the GI50 is 7.49 µM in the assay with LOX IMVI melanoma, 23.6 µM in the assay on HCC-2998 colon, 2.14 µM in the assay with HOP-92 NSCLC and 43.5 µM in the assay with SN12C renal. For the same molecule, the TGI in the assay on HCT-116 colon, with SK-MEL-2 melanoma, in the assay with UACC-257 melanoma, in the assay on NCI-H522 lung, in the assay with RXF 393 renal and in the assay with MALME-3M melanoma was greater than 100 µM each time. Also, the TGI in the assay with LOX IMVI melanoma is greater than 100 µM; with HCC-2998 colon it was greater than 100 µM; with HOP-92 NSCLC it was 22.4 µM; in the assay on SN12C renal, greater than 100 µM.
As to `CC(Cl)(/C=C/Cl)C(Cl)/C=C/C(Cl)(CCl)CBr` (stereo not drawn), the TGI in the assay on HCT-116 colon worked out at 3.39 µM; in the assay on SK-MEL-2 melanoma, 19.8 µM; in the assay with UACC-257 melanoma, 7.02 µM; in the assay on NCI-H522 lung it was 3.33 µM; with RXF 393 renal it was 2.92 µM; in the assay on MALME-3M melanoma it was 13.7 µM. In addition, the TGI in the assay with LOX IMVI melanoma came to 4.5 µM; in the assay on HCC-2998 colon, 33.2 µM; in the assay on HOP-92 NSCLC, 4.01 µM; with SN12C renal, 12.5 µM.
In the case of `O=C(Nc1n[nH]c2nc(-c3ccco3)c(Br)cc12)C1CC1`, the GI50 was greater than 25 µM in the assay with HCT-116 colon; greater than 25 µM in the assay with SK-MEL-2 melanoma; greater than 25 µM in the assay with UACC-257 melanoma; greater than 25 µM with NCI-H522 lung; 4.89 µM in the assay with RXF 393 renal; greater than 25 µM in the assay on MALME-3M melanoma. Further, the GI50 in the assay on LOX IMVI melanoma was greater than 21.7 µM; with HCC-2998 colon it was greater than 25 µM; with HOP-92 NSCLC, greater than 25 µM; in the assay with SN12C renal it was greater than 25 µM. Also, the TGI in the assay on HCT-116 colon, with SK-MEL-2 melanoma, in the assay with UACC-257 melanoma, in the assay on NCI-H522 lung, in the assay on RXF 393 renal and in the assay on MALME-3M melanoma was greater than 25 µM throughout. Besides, the TGI with LOX IMVI melanoma, in the assay with HCC-2998 colon, in the assay on HOP-92 NSCLC and with SN12C renal was greater than 25 µM in each case.
Take `Nc1cccc2c1C(=O)N(C1CCC(=O)NC1=O)C2=O` (stereo not drawn): the GI50 with HCT-116 colon, in the assay on SK-MEL-2 melanoma, in the assay on UACC-257 melanoma, with NCI-H522 lung, in the assay with RXF 393 renal and in the assay on MALME-3M melanoma was greater than 100 µM each time. In addition, the GI50 with LOX IMVI melanoma, with HCC-2998 colon, in the assay on HOP-92 NSCLC and in the assay on SN12C renal was greater than 100 µM throughout. Besides, the TGI with HCT-116 colon, in the assay with SK-MEL-2 melanoma, in the assay with UACC-257 melanoma, with NCI-H522 lung, with RXF 393 renal and in the assay with MALME-3M melanoma was greater than 100 µM each time. Moreover, the TGI in the assay with LOX IMVI melanoma, in the assay on HCC-2998 colon, in the assay with HOP-92 NSCLC and with SN12C renal was greater than 100 µM in each case.
On to `COc1ccccc1C(=O)/C=C/c1cc2cccc(OC)c2[nH]c1=O`, for which the GI50 in the assay on HCT-116 colon is less than 0.0225 µM; with SK-MEL-2 melanoma, 0.656 µM; in the assay on UACC-257 melanoma it was 1.63 µM; in the assay with NCI-H522 lung it was 0.101 µM; in the assay with RXF 393 renal, 0.0584 µM; with MALME-3M melanoma it was 0.0511 µM. The GI50 with LOX IMVI melanoma is 0.0262 µM; in the assay on HCC-2998 colon, 0.141 µM; with HOP-92 NSCLC, 0.115 µM; with SN12C renal, 0.079 µM. Further, the TGI is 0.632 µM in the assay on HCT-116 colon; 4.7 µM in the assay on SK-MEL-2 melanoma; 9.26 µM in the assay with UACC-257 melanoma; 2.16 µM in the assay with NCI-H522 lung; 0.991 µM in the assay with RXF 393 renal; 4.6 µM in the assay with MALME-3M melanoma. The TGI in the assay on LOX IMVI melanoma was found to be 0.724 µM; in the assay on HCC-2998 colon, 1.3 µM; with HOP-92 NSCLC, 2.07 µM; in the assay with SN12C renal, 2.64 µM.
Regarding `O=C1/C(=C\c2ccc(Cl)cc2)CN(C(=S)Nc2ccccc2)C/C1=C\c1ccc(Cl)cc1`, the GI50 in the assay with HCT-116 colon is 0.213 µM; in the assay with SK-MEL-2 melanoma, 2.57 µM; in the assay with UACC-257 melanoma it was 1.83 µM; with NCI-H522 lung it was 1.82 µM; in the assay on RXF 393 renal it was 0.397 µM; in the assay on MALME-3M melanoma it was 2.22 µM. The GI50 with LOX IMVI melanoma is 0.203 µM; in the assay with HCC-2998 colon, 0.755 µM; in the assay on HOP-92 NSCLC, 1.85 µM; with SN12C renal it was 0.544 µM. For the same molecule, the TGI in the assay with HCT-116 colon turned out to be 0.438 µM; in the assay on SK-MEL-2 melanoma it was 5.8 µM; with UACC-257 melanoma it was 3.78 µM; with NCI-H522 lung it was 3.84 µM; in the assay on RXF 393 renal, 1.13 µM; in the assay with MALME-3M melanoma, 4.86 µM. The TGI with LOX IMVI melanoma came out at 0.432 µM; with HCC-2998 colon it was 1.94 µM; with HOP-92 NSCLC it was 4.83 µM; in the assay with SN12C renal it was 1.89 µM.
On to `N[C@H]1C2C3CC4C5CC(C42)C1(c1ccccc1)C53` (stereo partly drawn), for which the TGI in the assay on HCT-116 colon, in the assay on SK-MEL-2 melanoma, in the assay with NCI-H522 lung, in the assay on RXF 393 renal, in the assay on MALME-3M melanoma and in the assay on LOX IMVI melanoma was greater than 100 µM each time. Further, the TGI in the assay on HCC-2998 colon, in the assay with HOP-92 NSCLC and in the assay with SN12C renal was greater than 100 µM throughout.
`CC1=COC(=O)c2ccccc2N1`: the TGI in the assay with HCT-116 colon, in the assay with SK-MEL-2 melanoma, in the assay on NCI-H522 lung, in the assay on RXF 393 renal, in the assay with MALME-3M melanoma and in the assay with LOX IMVI melanoma was greater than 100 µM in each case. The TGI in the assay on HCC-2998 colon, in the assay with HOP-92 NSCLC and in the assay on SN12C renal was greater than 100 µM in each case.
